Among the test systems are OVCAR-5 ovarian; KM12 colon; SF-539 CNS; UO-31 renal; IGROV1 ovarian; HT29 colon; SR leukemia; SNB-19 CNS; EKVX NSCLC; HCC-2998 colon; HL-60(TB) leukemia; OVCAR-8 ovarian; SK-MEL-2 melanoma; OVCAR-3 ovarian; MCF7 breast; MDA-N; A549 NSCLC; RPMI-8226 leukemia; HCT-116 colon.
Holding throughout (test): growth of human tumour cells (NCI), 48 h

TGI data for 8 compounds are collected here from PubChem BioAssay (NCI).

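Cultured in 96-well plates, cells were exposed to test compound for 48 hours across five concentrations. TGI: total growth inhibition.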

With `CC(=O)OC(=C(C#N)C#N)c1nccnc1C(C)=O`, the TGI in the test with OVCAR-5 ovarian is above 20 µM; in the test with KM12 colon it was 14 µM; with SF-539 CNS it was above 20 µM; in the test with UO-31 renal, above 20 µM; in the test on IGROV1 ovarian, above 20 µM; with HT29 colon it was 8.94 µM. In addition, the TGI in the test with SR leukemia, with SNB-19 CNS, with EKVX NSCLC, in the test on HCC-2998 colon, in the test on HL-60(TB) leukemia and with OVCAR-8 ovarian was above 20 µM throughout. The TGI is above 20 µM in the test on SK-MEL-2 melanoma; above 20 µM in the test on OVCAR-3 ovarian; above 20 µM with MCF7 breast; 17.3 µM in the test with MDA-N; above 20 µM in the test on A549 NSCLC.

Consider `Brc1ccc(-c2cc(-c3ccc4c(c3)OCO4)c(-c3cccs3)n2Cc2ccccc2)cc1`, for which the TGI in the test on RPMI-8226 leukemia, with KM12 colon, in the test on SF-539 CNS, in the test on UO-31 renal, with IGROV1 ovarian and with HT29 colon was above 100 µM throughout. The TGI in the test on HCT-116 colon, in the test with SR leukemia, with SNB-19 CNS, with EKVX NSCLC, in the test with HCC-2998 colon and in the test on HL-60(TB) leukemia was above 100 µM each time. Further, the TGI in the test on OVCAR-8 ovarian, with SK-MEL-2 melanoma, with MCF7 breast, in the test on MDA-N and in the test with A549 NSCLC was above 100 µM throughout.

Turning to `C/C(=C1\C(=O)C(c2ccccc2)N(c2ccccc2)C1=O)c1ccc(Cl)cc1` (configuration not stated), the TGI with RPMI-8226 leukemia worked out at 38.1 µM; with KM12 colon, 57.1 µM; in the test with SF-539 CNS, 48.9 µM; with UO-31 renal, 45.8 µM; with IGROV1 ovarian it was 40.5 µM; in the test with HT29 colon, 31.2 µM. The TGI is 36.3 µM with HCT-116 colon; 53.2 µM in the test with SR leukemia; 32.7 µM in the test on SNB-19 CNS; 79.6 µM with EKVX NSCLC; 96.1 µM with HCC-2998 colon; 69.1 µM with HL-60(TB) leukemia. Also, the TGI in the test on SK-MEL-2 melanoma was 45.4 µM; with OVCAR-3 ovarian, 30.6 µM; with MCF7 breast it was above 100 µM; in the test on MDA-N, 48 µM; in the test on A549 NSCLC it was 36.5 µM.

Turning to `O=C1CCCC[C@H]1C(O)CC1CC(=O)N(c2ccccc2)C(=O)C1` (some centres not stated), the TGI in the test on RPMI-8226 leukemia, in the test with OVCAR-5 ovarian, in the test with KM12 colon, with SF-539 CNS, in the test on UO-31 renal and in the test on IGROV1 ovarian was above 100 µM each time. Besides, the TGI in the test on HT29 colon, with HCT-116 colon, in the test with SR leukemia, in the test on SNB-19 CNS, in the test with HCC-2998 colon and in the test on HL-60(TB) leukemia was above 100 µM in each case. Further, the TGI with OVCAR-8 ovarian, with OVCAR-3 ovarian, in the test on MCF7 breast, in the test on MDA-N and in the test on A549 NSCLC was above 100 µM each time.

Take `Cc1ccc(NC(=O)/C(=N\NC(N)=O)c2c(O)c3ccccc3[nH]c2=O)cc1`: the TGI in the test on RPMI-8226 leukemia, with OVCAR-5 ovarian, in the test with KM12 colon, in the test with SF-539 CNS, in the test on UO-31 renal and in the test with HT29 colon was above 100 µM each time. The TGI in the test on HCT-116 colon, in the test with SR leukemia, in the test with SNB-19 CNS, in the test with HCC-2998 colon, in the test with HL-60(TB) leukemia and in the test with OVCAR-8 ovarian was above 100 µM in each case. Moreover, the TGI in the test on SK-MEL-2 melanoma, in the test on OVCAR-3 ovarian, in the test with MCF7 breast, in the test with MDA-N and in the test on A549 NSCLC was above 100 µM throughout.

Regarding `COc1cccc(C=C2N=C(C)N(n3c(-c4ccccc4)nc4ccccc4c3=O)C2=O)c1`, the TGI in the test on RPMI-8226 leukemia, with KM12 colon, in the test on SF-539 CNS, in the test with UO-31 renal, in the test on IGROV1 ovarian and in the test with HT29 colon was above 100 µM in each case. Besides, the TGI in the test with HCT-116 colon, in the test with SR leukemia, in the test with SNB-19 CNS, in the test on EKVX NSCLC, in the test on HCC-2998 colon and in the test on HL-60(TB) leukemia was above 100 µM each time. The TGI with OVCAR-8 ovarian, in the test with MCF7 breast, with MDA-N and in the test with A549 NSCLC was above 100 µM each time.

Regarding `COCn1c(C)c(C)c2c(=O)oc(C)nc21`, the TGI in the test on RPMI-8226 leukemia, in the test with OVCAR-5 ovarian, with KM12 colon, with SF-539 CNS, in the test on UO-31 renal and with IGROV1 ovarian was above 100 µM each time. The TGI in the test on HT29 colon, with HCT-116 colon, in the test with SR leukemia, in the test with SNB-19 CNS, in the test on EKVX NSCLC and in the test with HCC-2998 colon was above 100 µM throughout. In addition, the TGI in the test on HL-60(TB) leukemia, in the test with OVCAR-8 ovarian, in the test with SK-MEL-2 melanoma, in the test on MCF7 breast, with MDA-N and in the test with A549 NSCLC was above 100 µM each time.

In the case of `CCOC(=O)c1cn2c(ccc3sc4ccccc4c(=O)c32)n1`, the TGI in the test on RPMI-8226 leukemia, in the test on OVCAR-5 ovarian, with KM12 colon, in the test on SF-539 CNS, in the test with UO-31 renal and in the test with IGROV1 ovarian was above 100 µM in each case. Further, the TGI in the test with HT29 colon, in the test with HCT-116 colon, in the test with SR leukemia, in the test on SNB-19 CNS, in the test on EKVX NSCLC and with HCC-2998 colon was above 100 µM in each case. The TGI in the test with HL-60(TB) leukemia, with OVCAR-8 ovarian, with OVCAR-3 ovarian, in the test with MCF7 breast, with MDA-N and in the test with A549 NSCLC was above 100 µM each time.
